# Read-outs that look alike come from different tables or passages of the source.
# How the values were obtained:
# [1] = Cytotoxicity, Neutral Red, SK-MEL; type: cell-based; settings: human, SK-MEL malignant melanoma cells, Na = not active up to 50 µg/mL
# Experimental: (§1) In vitro cytotoxic activity was determined against five human cancer cell lines—malignant melanoma (SK-MEL), epidermal carcinoma oral (KB), ductal carcinoma breast (BT-549), ovary carcinoma (SKOV-3) and cervical (HeLa) cancer cells—and two non-cancerous kidney cell lines (LLC-PK1 and Vero). All cell lines were obtained from the American Type Culture Collection (ATCC, Rockville, MD, USA). Each assay was performed in 96-well tissue culture-treated microplates. The cells were seeded at a density of 25,000 cells/well and incubated for 24 h. Samples at different concentrations were added, and the cells were incubated again for 48 h. At the end of the incubation, the cell viability was determined using Neutral Red dye according to a modification of the procedure used by Borenfreund et al.. IC50 values were determined from dose–response curves of the percent growth inhibition against test concentrations. Doxorubicin was used as a positive control, while DMSO was used as the negative (vehicle) control.
# [2] = Cytotoxicity, Neutral Red, KB; type: cell-based; settings: human, KB epidermal carcinoma (oral) cells, Na = not active up to 50 µg/mL
# Experimental: as §1
# [3] = Cytotoxicity, Neutral Red, BT-549; type: cell-based; settings: human, BT-549 breast ductal carcinoma cells, Na = not active up to 50 µg/mL
# Experimental: as §1
# [4] = Cytotoxicity, Neutral Red, SK-OV-3; type: cell-based; settings: human, SK-OV-3 ovary carcinoma cells, Na = not active up to 50 µg/mL
# Experimental: as §1
# [5] = Cytotoxicity, Neutral Red, HeLa; type: cell-based; settings: human, HeLa cervical cancer cells, Na = not active up to 50 µg/mL
# Experimental: as §1
# [6] = Cytotoxicity, Neutral Red, LLC-PK1; type: cell-based; settings: pig, LLC-PK1 kidney epithelial cells, Na = not active up to 50 µg/mL
# Experimental: as §1
# [7] = Cytotoxicity, Neutral Red, Vero; type: cell-based; settings: monkey, Vero kidney fibroblasts, Na = not active up to 50 µg/mL
# Experimental: as §1
# Stat3 [8] = test: Luciferase reporter assay, Stat3, HeLa; type: cell-based, human; settings: Homo sapiens; HeLa cells; inducer IL6; dash: not inhibited by more than 40% at 50 µmol/L
# Experimental: (§2) Hela cells (or T98G cells) from ATCC were plated in white opaque 384-well plates at a density of 4300 cells/well in 30 µL of growth medium (DMEM with 10% FBS and 1% Pen/Strep). The next day, the medium was aspirated and replaced with DMEM containing 1% FBS. The cells were transfected with respective plasmids using X-tremeGENE HP DNA transfection reagent (Roche). After 24 h of transfection, the test agents were added to the transfected cells, followed 30 min later by an inducing agent: interleukin 6 (IL-6) for Stat3, TGF-β for Smad, m-wnt3a for Wnt and PMA for AP-1, NF-κB, E2F, Myc, ETS, Notch and Hedgehog. No inducer was added for FoXO and pTK. After 4 h or 6 h of induction, the cells were lysed via the addition of the One-Glo luciferase assay system (Promega; Madison, WI). The light output was detected in a GloMax®-Multi+ Detection System with Instinct® Software (Promega E 8051). This luciferase assay determines if the test agent is able to inhibit the activation of cancer-related signaling pathways. In the case of FoxO, the enhanced luciferase activity via the test agent was assessed.
# Smad2/3 [9] = test: Luciferase reporter assay, Smad2/3, HeLa; type: cell-based, human; settings: Homo sapiens; HeLa cells; inducer TGF-beta; dash: not inhibited by more than 40% at 50 µmol/L
# Experimental: as §2
# AP-1 [10] = test: Luciferase reporter assay, AP-1, HeLa; type: cell-based, human
# Experimental: as §2
# NF-κB [11] = test: Luciferase reporter assay, NF-κB, HeLa; type: cell-based; settings: Homo sapiens; HeLa cells; inducer PMA; dash: not inhibited by more than 40% at 50 µmol/L
# Experimental: as §2
# E2F [12] = test: Luciferase reporter assay, E2F, HeLa; type: cell-based, human
# Experimental: as §2
# Myc [13] = test: Luciferase reporter assay, Myc, HeLa; type: cell-based; settings: Homo sapiens; HeLa cells; inducer PMA; dash: not inhibited by more than 40% at 50 µmol/L
# Experimental: as §2
# ETS [14] = test: Luciferase reporter assay, ETS, HeLa; type: cell-based, human; settings: Homo sapiens; HeLa cells; inducer PMA; dash: not inhibited by more than 40% at 50 µmol/L
# Experimental: as §2
# Notch [15] = test: Luciferase reporter assay, Notch, HeLa; type: cell-based; settings: Homo sapiens; HeLa cells; inducer PMA; dash: not inhibited by more than 40% at 50 µmol/L
# Experimental: as §2
# FoxO = test: Luciferase reporter assay, FoxO, HeLa; type: cell-based; settings: Homo sapiens; HeLa cells; no inducer; dash: no activity detected; read-out: IC50, FoxO (None)
# Experimental: as §2
# Wnt [16] = test: Luciferase reporter assay, Wnt, HeLa; type: cell-based; settings: Homo sapiens; HeLa cells; inducer m-wnt3a; dash: not inhibited by more than 40% at 50 µmol/L
# Experimental: as §2
# Hedgehog [17] = test: Luciferase reporter assay, Hedgehog, HeLa; type: cell-based, human; settings: Homo sapiens; HeLa cells; inducer PMA; dash: not inhibited by more than 40% at 50 µmol/L
# Experimental: as §2
# [18] = system: panel of transcription factors (cancer-related signaling pathways); test: Luciferase reporter panel, summary over pathways, HeLa; type: cell-based; settings: Homo sapiens; HeLa cells; read-out: IC50, span over signaling pathways
# Experimental: as §2
# Stat3 [19] = system: Stat3; design: method as in PMID 36235141; settings: T98G glioblastoma multiforme cells; inducer IL6; cited from earlier work
# Smad2/3 [20] = system: Smad2/3; design: method as in PMID 36235141; settings: T98G glioblastoma multiforme cells; inducer TGF-beta; cited from earlier work
# AP-1 [21] = system: AP-1; design: method as in PMID 36235141; settings: T98G glioblastoma multiforme cells; inducer PMA; cited from earlier work
# NF-κB [22] = system: NF-κB; design: method as in PMID 36235141; settings: T98G glioblastoma multiforme cells; inducer PMA; cited from earlier work
# E2F [23] = system: E2F; design: method as in PMID 36235141; settings: T98G glioblastoma multiforme cells; inducer PMA; cited from earlier work
# Myc [24] = system: Myc; design: method as in PMID 36235141; settings: T98G glioblastoma multiforme cells; inducer PMA; cited from earlier work
# ETS [25] = system: ETS; design: method as in PMID 36235141; settings: T98G glioblastoma multiforme cells; inducer PMA; cited from earlier work
# Notch [26] = system: Notch; design: method as in PMID 36235141; settings: T98G glioblastoma multiforme cells; inducer PMA; cited from earlier work
# Wnt [27] = system: Wnt; design: method as in PMID 36235141; settings: T98G glioblastoma multiforme cells; inducer m-wnt3a; cited from earlier work
# Hedgehog [28] = system: Hedgehog; design: method as in PMID 36235141; settings: T98G glioblastoma multiforme cells; inducer PMA; cited from earlier work
# [29] = HeLa cells, inducer PMA, dash: not inhibited by more than 40% at 50 µmol/L
smiles,measurement,setting,value
"COc1cccc2c1C(=O)c1c(O)c3c(c(O)c1C2=O)C[C@@](O)(C(=O)CO)C[C@@H]3O[C@H]1C[C@H](N)[C@H](O)[C@H](C)O1 [Doxorubicin, reference compound]",IC50 at 48 h,[1],2.2 µg/mL
same,IC50 at 48 h,[2],2.4 µg/mL
same,IC50 at 48 h,[3],2.4 µg/mL
same,IC50 at 48 h,[4],2 µg/mL
same,IC50 at 48 h,[5],4.3 µg/mL
same,IC50 at 48 h,[6],1.1 µg/mL
same,IC50 at 48 h,[7],> 5 µg/mL
"C=C(C)[C@@H]1CCC(C)=C[C@H]1c1c(O)cc(CCCCC)cc1O [compound 9, cannabidiol, reference compound]",IC50,Stat3 [8],5.9 µM
same,IC50,Smad2/3 [9],4.1 µM
same,"IC50, Ap-1 (PMA)",AP-1 [10]; [29],inactive
same,IC50,"AP-1 [10]; Homo sapiens, read-out: IC50, Ap-1 (PMA)",> 50 µM
same,IC50,NF-κB [11],3 µM
same,"IC50, E2F (PMA)",E2F [12]; [29],inactive
same,IC50,"E2F [12]; Homo sapiens, HeLa, read-out: IC50, E2F (PMA)",> 50 µM
same,IC50,Myc [13],3.8 µM
same,IC50,ETS [14],5.5 µM
same,IC50,Notch [15],4.8 µM
same,IC50,FoxO,> 50 µM
same,IC50,Wnt [16],5.7 µM
same,IC50,Hedgehog [17],6.1 µM
same,IC50,[18],3 to 6.1 µM
C=C(C)[C@H]1CCC(C)=C[C@@H]1c1c(O)cc(O)cc1/C=C/c1ccccc1 [compound 12],IC50,Stat3 [19],4.9 µM
same,IC50,Smad2/3 [20],3.5 µM
same,IC50,AP-1 [21],10.2 µM
same,IC50,NF-κB [22],7.7 µM
same,IC50,E2F [23],4.5 µM
same,IC50,Myc [24],5.7 µM
same,IC50,ETS [25],7.3 µM
same,IC50,Notch [26],< 5 µM
same,IC50,Wnt [27],12.1 µM
same,IC50,Hedgehog [28],7 µM
CC(C)=CCC/C(C)=C/Cc1c(O)cc(O)cc1/C=C/c1ccccc1 [compound 13],IC50,Stat3 [19],4.3 µM
same,IC50,Smad2/3 [20],2.2 µM
same,IC50,AP-1 [21],4.4 µM
same,IC50,NF-κB [22],4.8 µM
same,IC50,E2F [23],4.4 µM
same,IC50,Myc [24],1.9 µM
same,IC50,ETS [25],4.7 µM
same,IC50,Notch [26],2.1 µM
same,IC50,Wnt [27],9.1 µM
same,IC50,Hedgehog [28],8.3 µM

# — article PMC10361207, “Cannabinoid and Opioid Receptor Affinity and Modulation of Cancer-Related Signaling Pathways of Machaeriols and Machaeridiols from Machaerium Pers” (Molecules, 2023)
